Reference: patent US20210371413A1, “POLYCYCLIC AMIDES AS CYTOTOXIC AGENTS” (FEMTOGENIX LIMITED, priority 2018, published 2021)

How the values were obtained:
Assay type in all cases: binding
[1] = tested on: DS3 DNA fragment; test: DNA footprinting, DS3 DNA fragment
Protocol: (§1) The DNA sequence selectivity profile of the molecules was investigated using a modification of the previously established DNA footprinting assay. Following an overnight incubation of the ligand-DNA complexes, the mixture was mixed with strand separation buffer containing 10 mM EDTA, 10 mM NaOH, 0.1% bromophenol blue, 80% formamide and incubated at 100° C. for 3 min. The mixture was then immediately cooled on ice and run on an 8% denaturing gel.
(§2) The preparation of the DS3 DNA fragment (FIG. 5) and the “D” DNA fragment (FIG. 6) has been previously described. Briefly, the sequence which had been cloned into the BamHI site of pUC18 was obtained by cutting with HindIII and EcoRI. Radiolabelled DNA fragments were prepared by filling in the 3′-end of the HindIII site with [α-^32P]dATP using Klenow DNA polymerase (exo-).
The radiolabelled DNA fragment was separated from the remainder of the plasmid DNA on a 6% non-denaturing polyacrylamide gel. The gel (20 cm long, 0.3 mm thick) was run at 400 V in 1×TBE running buffer for about 1-2 h, until the bromophenol blue had run most of the way down the gel. The glass plates were separated and the position of the labelled DNA fragment was established by short (1 min) exposure to an X-ray film. The relevant band was then cut from the gel and the radiolabelled DNA eluted by adding 300 μL 10 mM Tris-HCl, pH 7.5 containing 0.1 mM EDTA and gently agitating overnight at room temperature. The eluted DNA was finally precipitated with ethanol and re-suspended in a suitable volume of 10 mM Tris-HCl, pH 7.5 containing 0.1 mM EDTA buffer so as to give at least 10 counts per second/μL on a hand-held Geiger counter. […]
(§3) Footprinting reactions were performed as previously described using the DNA fragments DS3, which contains tracts of AT/GC bases; and using the “D” DNA fragments which represents a random DNA sequence. […] After gel purification, the radiolabelled DNA was dissolved in 10 mM Tris-HCl pH 7.5 containing 0.1 mM EDTA, at a concentration of about 10 c.p.s per μL as determined on a hand held Geiger counter. […]

[2] = tested on: 5′-[…]-3′ (poly GC) DNA duplex; test: FRET DNA melting, poly GC duplex; conditions: 5′-AATAGGGGGTCGCCTATT-3′
Protocol: FRET DNA melting studies were undertaken on 15 and 16 using two fluorescently labelled sequences. The sequences (FIG. 1) were designed to represent poly AT and poly GC sequences.
The short duplexes used in this FRET study are relatively unstable in the duplex form with a melting temperature below 30° C. so that, in the absence of ligand, a large part of the melting occurs below the starting temperature of the experiment. However, it can be observed that 15 stabilizes the duplex form, producing increases in melting temperature with ΔTm values of […] for 5′-AAAAAAAGAAAAAATIT-3′ (FIG. 2, top panel), and ˜25° C. (FIG. 2, bottom panel).
Oligonucleotides were obtained from ATDbio (Southampton, UK) in lyophilised form. […]
The reaction mixture was comprised of 4 μL of 250 mM phosphate buffer (final concentration of 50 mM), 4 μL flourophor and 4 μL quencher molecule of the appropriate oligonucleotide for a final concentration of 0.2 μM, 4 μL 5 M sodium chloride (final concentration of 1 M NaCl), and 4 μL of distilled H2O. […] This mixture was analysed without prior annealing.
Fluorescence melting profiles were measured using a Roche LightCycler using a total reaction volume of 20 μL. […] Annealing steps and melting steps were all recorded and changes in fluorescence were measured at 520 nm. […]

[3] = tested on: "D" DNA fragment; test: DNA footprinting, random "D" DNA fragment; conditions: random "D" DNA sequence
Protocol: as §1, §2
The radiolabelled DNA fragment was separated from the remainder of the plasmid DNA on a 6% non-denaturing polyacrylamide gel. […]
as §3

## COc1cc2c(cc1OCCCC(=O)Nc1cc(C(=O)Nc3ccc(-c4cc(C(=O)Nc5ccc(N)cc5)n(C)c4)cc3)n(C)c1)NC[C@@H]1CCCCN1C2=O [Compound 16, (S)—N-(4-Aminophenyl)-4-(4-(4-(4-((2-methoxy-12-oxo-5,6,6a,7,8,9,10,12-octahydrobenzo[e]pyrido[1,2-a][1,4]diazepin-3-yl)oxy)butanamido)-1-methyl-1H-pyrrole-2-carboxamido)phenyl)-1-methyl-1H-pyrrole-2-carboxamide]
[1]; DS3 DNA sequence
  DNA binding pattern (footprint): predominantly target AT rich regions
[1]; from DNA footprinting, fragment not stated
  DNA-binding site sequence (X any base, W A or T): XXXXWWW
[2]
  interactivity with the poly-GC sequence (FRET): little interactivity
[3]
  preferred binding sites (footprint): only three preferred sites were observed during this experiment, and all are primarily AT-rich
